From paper PMC11982498 (Redox Biology, 2025)

Legend:
[1] = system: BCL-2 gene transcription in SH-SY5Y cells; test: Real-time RT-PCR in SH-SY5Y cells, BCL-2; type: cell-based, human
Description: SH-SY5Y cells were treated with or without B14, and total RNA was subsequently isolated and purified. Reverse transcription was performed using a cDNA synthesis kit. The relative transcription levels of the genes were evaluated through quantitative real-time PCR using the SYBR Green-based method, as described in the Supplementary Date. Details regarding the primer sequences and the raw data can be found in Table S7 and Table S8.
^a -∆∆Ct = -[(Ct value of genes in treated sample - Ct value of genes in control) - (Ct value of β-actin in treated sample - Ct value of β-actin in control)]. ^b F: The relative expression fold.
Experiment 1: SH-SY5Y cells were treated with different concentration of B14. The Ct values of BAX, VEGF, CMYC and BCL-2 were obtained.
Total RNA was extracted from cells and mice liver tissue using RNAiso Plus (Takara, 9109, Japan). Following sample homogenization, chloroform was added, and the solution was allowed to have phase separation into an upper aqueous layer (containing RNA), an interphase, and a lower organic layer (containing DNA and proteins). RNA was precipitated from the aqueous phase using isopropanol, while DNA was precipitated from the aqueous-organic interphase using ethanol. Complementary DNA (cDNA) was synthesized using the One-Step RT-PCR Kit (Takara, Cat#639503, Japan).
Quantitative real-time polymerase chain reaction (qRT-PCR) was performed using the 2× RealStar SYBR Mixture (GenStar, Cat# A301-10, Guangzhou, China) on a LightCycler 480 II real-time PCR system (Roche, USA). Data were analyzed using the 2^−ΔΔCt method. Actin served as the internal control, and relative mRNA levels were normalized accordingly.

BCL-2 IM = test: FRET fluorescence titration of double-labeled DNA; type: binding; settings: pH 6.2
Description: Figure S3. Biophysical experiments were performed for binding of acridine derivative to BCL-2 promoter i-motif and other DNA structures. (A-C) SPR experiments were performed for binding of B14 to ILPR promoter i-motif, (G2C4)6 promoter i-motif, and HRAS promoter i-motif. Bio-ILPR, bio-(G2C4)6, and bio-HRAS were annealed in MES buffer at pH 5.5. (D) FRET experiment was performed for pH-dependent fluorescence change of BCL-2 promoter i-motif dual labeled with FAM and TAMRA at the 5´-end and 3´-end, respectively. […] (E) Dose-dependent fluorescence spectra changes at 516 nm for various dual labeled C-rich oligomers (representing i-motifs from promoters of BCL-2, C-KIT, C-MYC, C-JUN and TEL-C DNA) were measured with addition of increasing amount of B14. […] All the experiments were repeated for three times.
The oligonucleotides with fluorescent 5´-FAM and 3′-TAMRA labeling at concentration of 100 nM in 1 × BPES buffer were annealed by heating at 95 °C for 5 min followed by cooling to room temperature. The spectra from 500 nm to 700 nm of 100 μL mixture with addition of different equivalent compounds at 25 °C were recorded based on fluorescence emission (λex = 480 nm).

BCL-2 G4 = test: ESI-MS with BCL-2 G4; type: binding; settings: pH 7.4
Description: The oligomer for BCL-2 promoter […] at concentration of 5 μM was annealed in 1 × BPES buffer with or without 20 μM B14 at 95 °C for 5 min, followed by cooling to room temperature. Mass spectrometry signals were collected by using ESI-MS (Thermo, LCQ DECA Plus XP) and analyzed by using pro-mass.
Figure S5. ESI-MS, UV, CD, and EMSA experiments were performed to examine the effect of B14 on BCL-2 promoter i-motif and G-quadruplex. (A) ESI-MS experiment for oligomer BCL-2 G4 alone, which was annealed in 1 × BPES buffer at pH 7.4. (B) ESI-MS experiment for above oligomer BCL-2 G4 with addition of B14 in 1 × BPES buffer at pH 7.4. (C-D) TO displacement with increasing amount of oligomer BCL-2 i-motif annealed in 1 X BPES buffer at pH 5.5 in the presence of 20 equivalents of B14 or A22. (E) EMSA experiment was performed for the effect of B14 on inducing BCL-2 i-motif formation. The lanes from left to right were as follow: BCL-2 i-motif alone at pH 5.5; BCL-2 i-motif alone at pH 6.2; BCL-2 i-motif plus 1 eq B14 at pH 6.2; BCL-2 i-motif plus 5 eq B14 at pH 6.2; BCL-2 i-motif plus 10 eq B14 at pH 6.2. (F) CD experiment was performed to study the interaction of B14 or A22 with BCL-2 promoter i-motif.

[2] = system: F-BCL-2 (BCL-2 IM) (DNA, i motif) CAGCCCCGCTCCCGCCCCCTTCCTCCCGCGCCCGCCCCT; test: MST, Hill fit; settings: K+ 100 mM KCl plus potassium phosphate; BPES buffer (30 mM phosphate, 1 mM EDTA), pH 5.5
[3] = system: bio-HRAS (DNA, i motif) CGCCCGTGCCCTGCGCCCGCAACCCGA; test: SPR; settings: K+ 100 mM; 20 mM MES, pH 5.5, 25 °C
HRAS promoter i-motif [4] = test: TO displacement assay, HRAS i-motif; type: binding
Description: DNA oligonucleotides were diluted to 1 μM with 1 × PBES buffer at pH 5.5, annealed at 95 °C for 10 min, cooled to room temperature, and stored at 4 °C for future use. TO dye (1 μM) was added to the DNA solution followed with incubation for 1 h. The spectra of 100 μL mixture with addition of different equivalent compounds at 25 °C were recorded based on fluorescence emission (λex = 480 nm).
TO displacement ratio (%) = (F0 − FC) / (F0 − FB) * 100.
F0 and FC were the fluorescence intensity of TO at 536 nm with DNA before and after adding compounds, respectively. FB was the fluorescence intensity of TO at 536 nm with buffer only.

HRAS promoter i-motif [5] = test: SPR binding to HRAS promoter i-motif; settings: MES buffer pH 5.5

O=C(CCN1CCOCC1)Nc1ccc2c(c1)c(=O)c1cc(NC(=O)CCN3CCOCC3)ccc1n2-c1ccc2occc2c1 [Compound B14]
-∆∆Ct, BCL-2 ([1]; 6.25 μM B14): -0.31
F = 2^-∆∆Ct (relative expression fold), BCL-2 ([1]; 6.25 μM B14): 1.23
-∆∆Ct, BCL-2 ([1]; 12.5 μM B14): -0.73
F = 2^-∆∆Ct (relative expression fold), BCL-2 ([1]; 12.5 μM B14): 1.65
-∆∆Ct, BCL-2 ([1]; 25 μM B14): -1.11
F = 2^-∆∆Ct (relative expression fold), BCL-2 ([1]; 25 μM B14): 2.15
fluorescence response of double-labeled DNA (BCL-2 IM): dose-dependent effect on the fluorescence of BCL-2 IM
adduct peak in ESI-MS (BCL-2 G4): no corresponding binding peak appeared
KD [2]: 1.06 µM
KD [3]: > 50 µM
TO displacement ratio (HRAS promoter i-motif [4]): 16%
Kd (HRAS promoter i-motif [5]): > 50 µM
